Data published in patent publication US5882881A, “Inhibition of cyst formation by cytoskeletal specific drugs” (priority 1998, dated 1999).
Values joined by “and” are separate entries in the source; they are usually repeats but may differ in a detail not shown here. Equal values may be shown once. “Also recorded” adds a separate entry of the source.

Legend:
[1] = test system: normal and polycystic human kidney epithelial cells; conditions: embedded in type 1 collagen; cited from earlier work
Murine CPK Cells [2] = assay: 3H-thymidine incorporation (DNA synthesis) in CPK cell suspension culture; format: cell-based, mouse; conditions: ± SD, three wells; concentrations as in Table II; control 100 ± 11; 1440 min
Procedure: Growth studies were performed on kidney cells derived from day 10, 21 and 28 postnatal CPK mice and their normal littermates. Immediately after cells were placed in suspension or monolayer culture, 3 μCi of ^3 H-thymidine (^3 H-dThd, specific activity 45 Ci/mmol, Amersham, Ill.) was placed in each well of the culture plate. DNA synthesis was assessed by incorporation of ^3 H-dThd over the 24 hours of culture, and trichloroacetic acid-insoluble. radioactivity was expressed as cpm/μg protein. Protein was assayed with the BCA reagent as described by the manufacturer (Pierce, Rockford, Ill.). At 24 hours of culture, an aliquot (0.2 ml) of the suspension was removed and the number of cysts counted using an inverted microscope. The number of cysts was expressed as a ratio factored for the total number of cells in the suspension at 24 hours of culture. Cyst diameter was measured at 100× using an eyepiece micrometer.
(§1) The effects of various metabolic inhibitors on cyst formation were studied in cultures derived from day 21 postnatal CPK mice. […] Taxol (25 μM), a microtubule specific inhibitor, was from Calbiochem (La Jolla, Calif.). All other chemicals were obtained from Sigma Chemical Co. Cytosine arabinoside was added at the final concentration of 20 μg/ml to inhibit DNA synthesis; α-amanitin at 100 ng/ml to inhibit RNA synthesis; cycloheximide at 40 μg/ml to inhibit protein synthesis; amiloride at 1 mM to inhibit the renal epithelial Na^+ -H^+ exchange; ouabain at 0.5 mM to inhibit Na^+ -K^+ -ATPase; brefeldin-A at 10 μg/ml to inhibit transport of surface proteins; griseofulvin at 350 μM to inhibit microtubule function; colchicine at 10 μM to inhibit microtubule polymerization; and cytochalasin-B and cytochalasin-D at 10 μM to depolymerize actin filaments.
(§2) In the presence of these metabolic inhibitors in vitro, cyst formation was noted to be either present or absent; if present, the diameters of 20 cysts from a 0.2 ml aliquot were measured. In the same samples, ^3 H-dThd incorporation was also measured as described above. […] After each wash, cell clusters were collected by centrifuging at 200×g for 1 minute and the supernatant discarded. Washed cell clusters were resuspended in the original volume of growth medium without inhibitors, placed in agarose coated wells and incubated at 37° C. in a moisture saturated incubator in 5% CO2 and air.
(§3) In this table, the mean cyst size is reported as ±SD with a measurement of twenty cysts. The ^3 H-dThd incorporation is reported as ±SD using measurements of three wells. The * indicates […] versus control. […] The entries listed as "NA" in the table indicate data that is not available.

Murine CPK Cells [3] = assay: In vitro cyst formation and cyst size in suspension culture of murine CPK cells; format: cell-based, mouse; conditions: for Cyst Size: mean ± SD of twenty cysts, concentrations as in Table II, control 71 ± 22; for cyst formation (in words): murine CPK cells, 24 h suspension culture, ouabain 0.5 mM, also 1 mM, b155 taxol 25 μM, colchicine 10 μM, vinblastine 1 μM, cytochalasins 10 μM, model species not given
Procedure: At 10, 21 and 28 days after birth, mice having congenital polycystic kidney disease (CPK) and their phenotypically normal littermates were sacrificed by cervical dislocation. Kidneys were harvested aseptically and washed with DMEM/F12 (Sigma Chemical Co., St. Louis, Mo.) in a 1:1 mix. Each decapsulated kidney was chopped into cubes (1 mm) and incubated in 5 ml of collagenase solution composed of 1 mg/ml collagenase type IV (Worthington Biochemical Corporation, Freehold, N.J.), 1 mg/ml egg white trypsin inhibitor (Worthington) in 1:1 DMEM/F12.
The top 12 mls, which contained both single cells and aggregates of up to 10 cells, as assessed by inverted phase-ontrast microscopy, were placed in 2 ml aliquots in the wells of plastic culture plates (Corning, N.Y.) precoated with 1% agarose in DMEM:F12 (2 ml in each well of a 6-well plate; 1 ml in each well of a 24-well plate). Cell samples were digested with further incubation for 10 minutes in 0.05% trypsin and 0.53 mM EDTA (Gibco, BRL Gaithesburg, Md.) at 37° C. All cultures were plated at a final density of 1-3×10^4 cell, per well. For growth studies of monolayer cells, identical preparations were grown on the plastic surface of the culture plates. Both the monolayers and the cell suspensions were incubated at 37° C. in a moisture saturated incubator in 5% CO2 and air.
(§4) I used the in vitro cyst formation system of the present invention to analyze compounds that affect the process of cyst formation. To determine the therapeutic effectiveness of an agent, cyst-forming cells are suspended in a medium to which the agent has been added. These cells are then cultured on a solid phase without formation of a layer of cells on the surface, such as in the assay system described in Example 1. The extent to which the cells actually form cysts can be detected and compared to the extent of cyst formation expected if no agent were added. If the amount of cyst formation is lower than expected, then the agent is a good candidate for therapeutic intervention of cystic diseases.
as §1, §2, §3

Murine CPK Cells [4] = assay: as above; format: cell-based, mouse; conditions: day 21, 24 h, final concentration per Table II (cytosine arabinoside 20 μg/ml, α-amanitin 100 ng/ml, cycloheximide 49 μg/ml, ouabain 1 mM, amiloride 1 mM, brefeldin-A 10 μg/ml, griseofulvin 350 μM, colchicine 10 μM, vinblastine 1 μM, nocodazole 30 μM, taxol 25 μM, cytochalasins 10 μM)
neonatal CPK kidneys = conditions: triiodothyronine pharmacological doses; ouabain 0.2 mM; cited from earlier work
Murine CPK Cells [5] = assay: Cell viability, trypan blue exclusion, CPK suspension culture; conditions: 1.0 mM ouabain
Procedure: as §1, with “[…];” for “ouabain at 0.5 mM to inhibit Na^+ -K^+ -ATPase;”

Na^+ K^+ -ATPase = conditions: triiodothyronine; ouabain 0.2 mM; cited from earlier work
human ADPKD cells = assay: In vitro cyst formation in human ADPKD cells; format: cell-based
Excerpt: I have substituted human ADPKD cells for the murine CPK cells of Example 1 and produced similar results. Other cyst-forming cells are believed to also form suitable results with only minor deviations from the conditions set forth in Example 1.
Cell suspensions were separated from debris by sedimentation at unit gravity and decantation. After washing once with DMEM/F12 medium, cells were suspended in DMEM/F12 supplemented with 1.2 gm/l sodium bicarbonate, 1× insulin, transferrin and selenium (Sigma # 11184), 1% lipids supplement (Sigma # L4646) and 1× antibiotic/antimycotic (Sigma # A7292) at a density of 5×10^4 cells per ml. Two mls of the cell suspension were aliquoted into each well of a six-well plastic cell culture plates that had been precoated with 2 mls of 1% low melting point agarose in DMEM/F12 and incubated at 37° C. in a humidified atmosphere of 5% CO2 in air.
as §4

homozygous cpk mice = assay: Survival of cpk mice on weekly griseofulvin (Example 9); format: in vivo, mouse
Procedure: Although the mechanism of its inhibitory activity is not presently understood, this antifungal agent is known to have a colchicine-like effect on mitosis.
Nine homozygous cpk mice, raised and identified as in Example 6 were treated with 25 μl of 24 mg/ml griseofulvin in DMSO through intraperitoneal injection beginning 10-12 days after birth. After the first treatment, the mice were administered with the same treatment once every week thereafter.

epidermal growth factor: stimulates cyst formation of kidney epithelial cells in collagen
induction of cysts [1]: can be induced to produce cysts

C[C@@H]1O[C@@H](O[C@H]2C[C@@H](O)[C@]3(CO)[C@H]4[C@H](O)C[C@]5(C)[C@@H](C6=CC(=O)OC6)CC[C@]5(O)[C@@H]4CC[C@]3(O)C2)[C@H](O)[C@H](O)[C@H]1O [Ouabain]
^3 H-dThd Incorporation (Murine CPK Cells [2]): 104 ± 9 % control
Cyst Size (Murine CPK Cells [3]): 0 μm
cyst formation (in words) (Murine CPK Cells [3]): not to inhibit cyst formation in these cells; also recorded: cyst inhibiting activity was observed; also recorded: did not prevent the formation of CPK cysts
Cyst Formation (+/-) (Murine CPK Cells [4]): -
proximal tubular cysts maintained / effect abolished (neonatal CPK kidneys): abolished
cell death / reduction of cell viability (in words) (Murine CPK Cells [5]): extensive cell death; also recorded: large scale reduction of cell viability
renal Na^+ K^+ -ATPase activity (in words) (Na^+ K^+ -ATPase): decrease
cyst formation (in words) (human ADPKD cells; human ADPKD cells, cytosine arabinoside 20 μg/ml, α-amanitin 100 ng/ml, cycloheximide 40 μg/ml, amiloride 1 mM, ouabain 0.5 mM, taxol 25 μM, colchicine 10 μM, vinblastine 1 μM, cytochalasins 10 μM): potent inhibitor of cyst formation; also recorded: completely block cyst formation; also recorded: cyst formation can be blocked
time to lumen appearance after removing the inhibitor (human ADPKD cells; human model): twenty-four
reversibility of inhibition of cyst formation (human ADPKD cells; human model, inhibitor removed): reversible

N[C@@H](Cc1cc(I)c(Oc2ccc(O)c(I)c2)c(I)c1)C(=O)O [triiodothyronine]
proximal tubular cysts maintained / effect abolished (neonatal CPK kidneys): can be maintained
renal Na^+ K^+ -ATPase activity (in words) (Na^+ K^+ -ATPase): increase

COC1=CC(=O)C[C@@H](C)[C@]12Oc1c(Cl)c(OC)cc(OC)c1C2=O [Griseofulvin]
Cyst Size (Murine CPK Cells [3]): 0 μm
cyst formation (in words) (Murine CPK Cells [3]): inhibits the formation of cysts
minimum average lifespan (homozygous cpk mice; 25 μl of 24 mg/ml griseofulvin in DMSO i.p. weekly from 10-12 days, untreated controls 33.5±6.3 days, preliminary): at least 49±15.8 days
age of mice still alive (homozygous cpk mice; remaining three of nine mice, weekly griseofulvin i.p.): 78 days of age and 54 days of age and 63 days of age
age at death of individual mice (homozygous cpk mice; six of nine mice, weekly griseofulvin i.p.): 31 days of age and 34 days of age and 35 days of age and 41 days of age and 45 days of age and 60 days of age
Cyst Formation (+/-) (Murine CPK Cells [4]): -

C=C[C@@]1(C)CC(=O)[C@]2(O)[C@@]3(C)[C@@H](O)CCC(C)(C)[C@@H]3[C@H](O)[C@H](OC(C)=O)[C@@]2(C)O1 [forskolin]
induction of cysts [1]: can be induced to produce cysts
